Laboratory results reported in US20160175379A1, “COMBINATION THERAPY FOR THE TREATMENT OF ISCHEMIA-REPERFUSION INJURY” (STEALTH BIO THERAPEUTICS CORP, priority 2013, published 2016).

Key:
[1] = tested on: acute myocardial infarction injury; assay: Acute myocardial infarction injury (ischemia/reperfusion) in a rabbit model; type: in vivo, New Zealand white rabbits; details: 30 min ischemia, 3 h reperfusion, IV infusion, compared to the control (vehicle alone) group
Experimental: The effects of a combination of aromatic-cationic peptides and a cardiovascular agent in protecting against an acute myocardial infarction injury in a rabbit model are investigated.
New Zealand white rabbits are used in this study. The rabbits are males and >10 weeks in age. Environmental controls in the animal rooms are set to maintain temperatures of 61° to 72° F. and relative humidity between 30% and 70%. Room temperature and humidity are recorded hourly, and monitored daily. There are approximately 10-15 air exchanges per hour in the animal rooms. Photoperiod is 12-hr light/12-hr dark (via fluorescent lighting) with exceptions as necessary to accommodate dosing and data collection. Routine daily observations are performed. Harlan Teklad, Certified Diet (2030C), rabbit diet is provided approximately 180 grams per day from arrival to the facility. […]
In all cases, treatments are started approximately 10 min after the onset of a 30 min ischemic insult (coronary occlusion) and continued for up to 3 h following reperfusion. In all cases, cardiovascular function is monitored both prior to and during ischemia, as well as for up to 180 min (3 h) post-reperfusion. The experiments are terminated 3 h post-reperfusion (end of study); irreversible myocardial injury (infarct size by histomorphometery) at this time-point is evaluated, and is the primary-end-point of the study. […]

[2] = tested on: cardiac ischemia-reperfusion injury; assay: Large animal model of acute myocardial infarction injury (cardiac ischemia-reperfusion); type: in vivo, sheep or pig; details: peptide given prior to ischemia
Experimental: The effects of aromatic-cationic peptides and cardiovascular agent in protecting against cardiac ischemia-reperfusion injury in a large animal model (e.g., a porcine or ovine model) are investigated.
The animals are sedated with intramuscular ketamine (50 mg/kg), glycopyrrolate (0.2 mg/kg), and buprenorphine (0.05 mg/kg). After intubation, animals are ventilated with a mechanical respirator (Hallowell EMC Model AWS; Hallowell, Pittsfield, Mass.) using room air enriched with 0.6 L/min oxygen. Catheters are introduced into a small auricular artery and vein, and into the right jugular vein for the continuous measurement of blood pressure and the administration of intravenous medications. […] Heart rate, blood pressure, surface electrocardiogram, and rectal temperature are continuously monitored (Hewlett Packard 78534C; Palo Alto, Calif.). […]
Animals undergo a left thoracotomy, and silicone vascular loops (Quest Medical, Allen, Tex.) are placed around the left anterior descending artery and its second diagonal branch, which is 40% of the distance from the apex to the base of the heart. […] Arterial blood pressure, heart rate, surface electrocardiograms (ECG), and rectal temperature are continuously monitored (Hewlett Packard 78534C; Palo Alto, Calif.) throughout the protocol in all animals. […]

D-Arg-2′6′-Dmt-Lys-Phe-NH2 [peptide]
infarct size and apoptotic cell death [1]: significantly reduced
redox ratio (RR) during ischemia [2]: blunted drop in the RR during ischemia
